According to PubChem BioAssay (NCI):
“And” between values parts separate entries of the source, which are not always exact repeats. Identical values can stand only once.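 96-well plates; 48 h exposure; 5 concentrations. Endpoints by linear interpolation between flanking doses. Not reached: highest tested concentration assigned. GI50 marks 50% less growth. TGI denotes the concentration required for complete inhibition of growth.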

Assays:
Test in all cases: NCI anticancer screen, dose series, 48 h
NCI-H460 lung = tested on: NCI-H460 lung
HT29 colon = tested on: HT29 colon
MOLT-4 leukemia = tested on: MOLT-4 leukemia
RXF 393 renal = tested on: RXF 393 renal
HL-60(TB) leukemia = tested on: HL-60(TB) leukemia
HOP-62 NSCLC = tested on: HOP-62 NSCLC
CCRF-CEM leukemia = tested on: CCRF-CEM leukemia
SF-539 CNS = tested on: SF-539 CNS
RPMI-8226 leukemia = tested on: RPMI-8226 leukemia
HS 578T breast = tested on: HS 578T breast

SMILES	GI50 (NCI-H460 lung)	TGI (NCI-H460 lung)	GI50 (HT29 colon)	TGI (HT29 colon)	GI50 (MOLT-4 leukemia)	TGI (MOLT-4 leukemia)	GI50 (RXF 393 renal)	TGI (RXF 393 renal)	GI50 (HL-60(TB) leukemia)	TGI (HL-60(TB) leukemia)	GI50 (HOP-62 NSCLC)	TGI (HOP-62 NSCLC)	GI50 (CCRF-CEM leukemia)	TGI (CCRF-CEM leukemia)	GI50 (SF-539 CNS)	TGI (SF-539 CNS)	GI50 (RPMI-8226 leukemia)	TGI (RPMI-8226 leukemia)	GI50 (HS 578T breast)	TGI (HS 578T breast)
O=C1CC(N2C(=O)/C(=C/C(Cl)=C\c3ccc([N+](=O)[O-])cc3)SC2=S)C(=O)N1c1ccc(O)cc1 (centres undefined)	2.55 µM	6.75 µM	0.847 µM	8.78 µM	0.544 µM	15.3 µM	1.53 µM	3.22 µM	2.44 µM	9.57 µM	2.26 µM	6.63 µM	0.385 µM	3.87 µM	1.72 µM	3.81 µM	0.295 µM	4.36 µM	2.8 µM	12.6 µM
COc1cc(C2CC(=O)Nc3c2c(C)nn3-c2nc3ccccc3[nH]2)cc(OC)c1O (centres undefined)	3.19 µM	> 35.1 µM	3.66 µM	16.6 µM	0.0427 µM	0.242 µM	2.17 µM	5.14 µM	3.05 µM	16.8 µM	3.72 µM	17 µM	1.34 µM	> 100 µM	3.1 µM	13.5 µM	3.07 µM	12.5 µM	2.05 µM	7.7 µM
COc1ccc(-c2cn(-c3cc(OC)c(OC)c(OC)c3)c(=O)[nH]2)cc1OC	> 100 µM	> 100 µM	> 100 µM	> 100 µM	> 100 µM	> 100 µM	> 100 µM	> 100 µM	> 100 µM	> 100 µM	> 100 µM	> 100 µM	> 100 µM	> 100 µM	> 100 µM	> 100 µM	> 100 µM	> 100 µM	20.2 µM	> 100 µM
COC(=O)[C@@H](C)C[C@H](Cc1ccccc1)NC(=O)c1csc([C@@H](C[C@H](C(C)C)N(C)C(=O)[C@@H](NC(=O)[C@H]2CCCN2C)C2CC2)OC(C)=O)n1	0.00238 µM and 0.0025 µM	> 25 µM	0.000503 µM and 0.0025 µM	> 25 µM	0.00316 µM and 0.0025 µM	> 25 µM	0.0025 µM	> 25 µM	0.000219 µM and < 0.0025 µM	0.000738 µM and < 0.0025 µM	0.00255 µM and 0.0025 µM	> 25 µM	0.000586 µM and 0.0025 µM	> 25 µM	0.00172 µM and < 0.0025 µM	0.00659 µM and < 0.0025 µM	0.000262 µM and 0.0025 µM	12.2 µM	0.00186 µM	–
